Assay results published in ChEMBL document CHEMBL3621115, “Discovery of 6-phenylimidazo[2,1-b]thiazole derivatives as a new type of FLT3 inhibitors” (Bioorg Med Chem Lett, 2015).
Active and inactive are the calls of the source. The calls are words filed in the database; no cut-off is given here.

What was measured:
[1] = target: Tyrosine-protein kinase Lck (Homo sapiens, UniProt P06239); assay: Inhibition of human recombinant Lck
[2] = target: Insulin-like growth factor 1 receptor (Homo sapiens, UniProt P08069); assay: Inhibition of human recombinant IGF-1R
[3] = target: Tyrosine-protein kinase JAK3 (Homo sapiens, UniProt P52333); assay: Inhibition of human recombinant JAK3
[4] = target: Tyrosine-protein kinase Lyn (Homo sapiens, UniProt P07948); assay: Inhibition of human recombinant Lyn
[5] = target: Dual specificity mitogen-activated protein kinase kinase 1 (Homo sapiens, UniProt Q02750); assay: Inhibition of human recombinant MEK1
Sequence of Dual specificity mitogen-activated protein kinase kinase 1 (Q02750 whole entry): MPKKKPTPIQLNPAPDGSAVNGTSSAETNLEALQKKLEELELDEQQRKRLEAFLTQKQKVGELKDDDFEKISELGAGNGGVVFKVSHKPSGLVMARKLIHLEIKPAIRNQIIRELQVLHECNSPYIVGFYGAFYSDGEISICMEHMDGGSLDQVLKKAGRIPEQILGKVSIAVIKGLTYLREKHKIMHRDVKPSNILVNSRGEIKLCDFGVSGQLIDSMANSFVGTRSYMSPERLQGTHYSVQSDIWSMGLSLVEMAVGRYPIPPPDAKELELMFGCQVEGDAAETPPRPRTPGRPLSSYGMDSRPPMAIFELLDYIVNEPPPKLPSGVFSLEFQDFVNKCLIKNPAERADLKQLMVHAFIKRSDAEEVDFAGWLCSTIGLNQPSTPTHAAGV

[6] = target: Mitogen-activated protein kinase kinase kinase 9 (Homo sapiens, UniProt P80192); assay: Inhibition of human recombinant MLK1
[7] = target: Serine/threonine-protein kinase PAK 1 (Homo sapiens, UniProt Q13153); assay: Inhibition of human recombinant PAK1
Sequence of Serine/threonine-protein kinase PAK 1 (Q13153 whole entry): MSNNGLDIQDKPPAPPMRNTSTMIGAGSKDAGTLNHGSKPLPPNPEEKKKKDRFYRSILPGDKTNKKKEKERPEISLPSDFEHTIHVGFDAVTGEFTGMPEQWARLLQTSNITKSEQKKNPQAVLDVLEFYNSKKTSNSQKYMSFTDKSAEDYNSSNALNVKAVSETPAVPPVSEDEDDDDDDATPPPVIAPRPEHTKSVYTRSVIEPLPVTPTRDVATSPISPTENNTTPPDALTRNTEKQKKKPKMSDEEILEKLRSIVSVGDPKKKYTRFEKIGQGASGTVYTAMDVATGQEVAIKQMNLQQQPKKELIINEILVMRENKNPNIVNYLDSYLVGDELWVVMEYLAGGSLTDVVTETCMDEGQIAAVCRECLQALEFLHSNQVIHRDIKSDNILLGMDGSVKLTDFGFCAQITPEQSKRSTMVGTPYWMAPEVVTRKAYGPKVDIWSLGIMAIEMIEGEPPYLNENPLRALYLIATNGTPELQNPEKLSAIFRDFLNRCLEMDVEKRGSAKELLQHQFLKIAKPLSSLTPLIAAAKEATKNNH

[8] = target: Serine/threonine-protein kinase D1 (Homo sapiens, UniProt Q15139); assay: Inhibition of human recombinant PKCmu
Sequence of Serine/threonine-protein kinase D1 (Q15139 whole entry): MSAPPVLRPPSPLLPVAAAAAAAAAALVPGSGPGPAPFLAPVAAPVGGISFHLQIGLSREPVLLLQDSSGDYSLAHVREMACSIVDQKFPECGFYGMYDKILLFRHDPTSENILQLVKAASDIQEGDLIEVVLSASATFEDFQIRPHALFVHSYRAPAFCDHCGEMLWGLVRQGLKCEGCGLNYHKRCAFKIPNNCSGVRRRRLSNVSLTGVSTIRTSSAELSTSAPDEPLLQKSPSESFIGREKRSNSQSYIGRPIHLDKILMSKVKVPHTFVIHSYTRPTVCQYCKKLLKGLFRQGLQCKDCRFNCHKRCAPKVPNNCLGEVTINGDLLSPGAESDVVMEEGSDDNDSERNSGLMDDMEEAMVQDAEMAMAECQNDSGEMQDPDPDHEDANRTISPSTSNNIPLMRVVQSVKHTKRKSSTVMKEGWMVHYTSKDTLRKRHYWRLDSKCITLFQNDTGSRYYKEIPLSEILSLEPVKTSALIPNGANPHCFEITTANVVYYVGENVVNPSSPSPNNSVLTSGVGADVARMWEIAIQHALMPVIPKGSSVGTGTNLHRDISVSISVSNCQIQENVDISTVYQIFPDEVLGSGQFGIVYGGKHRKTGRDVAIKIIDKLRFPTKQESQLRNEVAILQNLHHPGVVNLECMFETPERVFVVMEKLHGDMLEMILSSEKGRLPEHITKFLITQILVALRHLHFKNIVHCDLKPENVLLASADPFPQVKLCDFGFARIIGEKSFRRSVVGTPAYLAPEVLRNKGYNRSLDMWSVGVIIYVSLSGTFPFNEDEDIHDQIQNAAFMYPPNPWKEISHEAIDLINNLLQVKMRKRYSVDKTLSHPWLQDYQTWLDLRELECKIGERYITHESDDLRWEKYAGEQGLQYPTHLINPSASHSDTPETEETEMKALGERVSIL

[9] = target: BDNF/NT-3 growth factors receptor (Homo sapiens, UniProt Q16620); assay: Inhibition of human recombinant TrkB
Raji = assay: Cytotoxicity against human Raji cells assessed as cell viability after 72 hrs by MTT assay; assay type: functional, cell-based
HT-29 = assay: Cytotoxicity against human HT-29 cells assessed as cell viability after 72 hrs by MTT assay; assay type: functional, cell-based; conditions: HT-29, 72 h
HCT-116 = assay: Cytotoxicity against human HCT116 cells assessed as cell viability after 72 hrs by MTT assay; assay type: functional, cell-based; conditions: HCT-116, 72 h
[10] = Cytotoxicity against human DLD1 cells assessed as cell viability after 72 hrs by MTT assay; assay type: functional, cell-based; conditions: DLD-1, 72 h
CWR22R = assay: Cytotoxicity against human 22Rv1 cells assessed as cell viability after 72 hrs by MTT assay; assay type: functional, cell-based; conditions: 22Rv1, 72 h
[11] = Cytotoxicity against human A875 cells assessed as cell viability after 72 hrs by MTT assay; assay type: functional, cell-based; conditions: A875, 72 h
A2058 = assay: Cytotoxicity against human A2058 cells assessed as cell viability after 72 hrs by MTT assay; assay type: functional, cell-based; conditions: A2058, 72 h
U-251 = assay: Cytotoxicity against human U251 cells assessed as cell viability after 72 hrs by MTT assay; assay type: functional, cell-based; conditions: U-251, 72 h
MDA-MB-157 = assay: Cytotoxicity against human MDA-MB-157 cells assessed as cell viability after 72 hrs by MTT assay; assay type: functional, cell-based; conditions: MDA-MB-157, 72 h
MDA-MB-435 = assay: Cytotoxicity against human MDA-MB-435 cells assessed as cell viability after 72 hrs by MTT assay; assay type: functional, cell-based; conditions: MDA-MB-435, 72 h
MDA-MB-453 = assay: Cytotoxicity against human MDA-MB-453 cells assessed as cell viability after 72 hrs by MTT assay; assay type: functional, cell-based; conditions: MDA-MB-453, 72 h
[12] = Cytotoxicity against human SKBR3 cells assessed as cell viability after 72 hrs by MTT assay; assay type: functional, cell-based; conditions: SK-BR-3, 72 h
ZR-75-1 = assay: Cytotoxicity against human ZR-75-1 cells assessed as cell viability after 72 hrs by MTT assay; assay type: functional, cell-based; conditions: ZR-75-1, 72 h
NCI-H1975 = assay: Cytotoxicity against human NCI-H1975 cells assessed as cell viability after 72 hrs by MTT assay; assay type: functional, cell-based; conditions: NCI-H1975, 72 h
[13] = Cytotoxicity against human PC9 cells assessed as cell viability after 72 hrs by MTT assay; assay type: functional, cell-based; conditions: PC-9, 72 h
[14] = Cytotoxicity against human Calu6 cells assessed as cell viability after 72 hrs by MTT assay; assay type: functional, cell-based; conditions: Calu-6, 72 h
[15] = Cytotoxicity against human KYSE-150 cells assessed as cell viability after 72 hrs by MTT assay; assay type: functional, cell-based; conditions: KYSE-150, 72 h
[16] = Cytotoxicity against human SKHEP1 cells assessed as cell viability after 72 hrs by MTT assay; assay type: functional, cell-based; conditions: SK-HEP1, 72 h
[17] = Cytotoxicity against human UM-UC-3 cells assessed as cell viability after 72 hrs by MTT assay; assay type: functional, cell-based; conditions: UMUC3, 72 h
[18] = target: Receptor-type tyrosine-protein kinase FLT3 (Homo sapiens) (UniProt P36888); assay: Inhibition of FLT3 phosphorylation in human MV4-11 cells after 6 hrs by Western blotting analysis; assay type: cell-based
Sequence of Receptor-type tyrosine-protein kinase FLT3 (Homo sapiens) (P36888 whole entry): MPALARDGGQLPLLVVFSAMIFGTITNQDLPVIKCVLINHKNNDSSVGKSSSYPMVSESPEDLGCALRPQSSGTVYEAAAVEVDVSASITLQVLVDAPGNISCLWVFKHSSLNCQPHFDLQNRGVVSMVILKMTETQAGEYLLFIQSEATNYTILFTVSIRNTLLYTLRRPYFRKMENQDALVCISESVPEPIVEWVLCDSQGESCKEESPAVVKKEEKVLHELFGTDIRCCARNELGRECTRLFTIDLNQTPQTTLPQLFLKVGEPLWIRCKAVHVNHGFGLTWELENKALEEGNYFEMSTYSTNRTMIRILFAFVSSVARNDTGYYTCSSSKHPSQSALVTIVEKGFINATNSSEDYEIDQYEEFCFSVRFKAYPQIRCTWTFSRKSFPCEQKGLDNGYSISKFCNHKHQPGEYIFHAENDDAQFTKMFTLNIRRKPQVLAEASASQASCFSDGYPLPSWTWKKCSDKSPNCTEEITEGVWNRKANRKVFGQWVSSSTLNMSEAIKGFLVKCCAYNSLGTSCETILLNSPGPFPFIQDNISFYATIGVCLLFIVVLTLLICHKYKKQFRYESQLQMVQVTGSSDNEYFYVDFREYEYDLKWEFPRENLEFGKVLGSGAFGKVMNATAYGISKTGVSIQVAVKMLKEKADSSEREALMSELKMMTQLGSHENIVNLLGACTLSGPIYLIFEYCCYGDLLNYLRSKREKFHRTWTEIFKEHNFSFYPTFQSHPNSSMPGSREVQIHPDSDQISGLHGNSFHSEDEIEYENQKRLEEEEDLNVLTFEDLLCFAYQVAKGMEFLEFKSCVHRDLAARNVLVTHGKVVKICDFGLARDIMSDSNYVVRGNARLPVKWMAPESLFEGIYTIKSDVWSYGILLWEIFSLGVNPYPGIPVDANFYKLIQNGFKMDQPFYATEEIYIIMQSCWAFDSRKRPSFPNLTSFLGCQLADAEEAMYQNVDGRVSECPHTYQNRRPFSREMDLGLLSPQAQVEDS

[19] = target: Receptor-type tyrosine-protein kinase FLT3 (Homo sapiens) (UniProt P36888); assay: Inhibition of FLT3 in human MV4-11 cells assessed as down regulation of STAT5 phosphorylation at >0.001 uM after 6 hrs by Western blotting analysis; assay type: cell-based
[20] = target: Receptor-type tyrosine-protein kinase FLT3 (Homo sapiens) (UniProt P36888); assay: Inhibition of FLT3 in human MV4-11 cells assessed as down regulation of ERK1/2 phosphorylation at >0.001 uM after 6 hrs by Western blotting analysis; assay type: cell-based
Aurora kinase A = Aurora kinase A (Homo sapiens, UniProt O14965); assay: Inhibition of human recombinant Aurora-A
MV4-11 = assay: Cytotoxicity against human MV4-11 cells assessed as cell viability after 72 hrs by MTT assay; assay type: functional, cell-based; conditions: MV4-11, 72 h
HeLa = assay: Cytotoxicity against human HeLa cells assessed as cell viability after 72 hrs by MTT assay; assay type: functional, cell-based
[21] = target: Mast/stem cell growth factor receptor Kit (Homo sapiens, UniProt P10721); assay: Inhibition of human recombinant ckit
[22] = target: Macrophage colony-stimulating factor 1 receptor (Homo sapiens, UniProt P07333); assay: Inhibition of human recombinant Fms
[23] = target: Platelet-derived growth factor receptor beta (Homo sapiens, UniProt P09619); assay: Inhibition of human recombinant PDGFRbeta
[24] = target: Tyrosine-protein kinase ABL1 (Homo sapiens, UniProt P00519); assay: Inhibition of human recombinant Abl
Aurora kinase B = Aurora kinase B (Homo sapiens, UniProt Q96GD4); assay: Inhibition of human recombinant Aurora-B
[25] = target: Tyrosine-protein kinase receptor UFO (Homo sapiens, UniProt P30530); assay: Inhibition of human recombinant Axl
[26] = target: Tyrosine-protein kinase BTK (Homo sapiens, UniProt Q06187); assay: Inhibition of human recombinant BTK
[27] = target: Calcium/calmodulin-dependent protein kinase type IV (Homo sapiens, UniProt Q16566); assay: Inhibition of human recombinant CaMK4
Sequence of Calcium/calmodulin-dependent protein kinase type IV (Q16566 whole entry): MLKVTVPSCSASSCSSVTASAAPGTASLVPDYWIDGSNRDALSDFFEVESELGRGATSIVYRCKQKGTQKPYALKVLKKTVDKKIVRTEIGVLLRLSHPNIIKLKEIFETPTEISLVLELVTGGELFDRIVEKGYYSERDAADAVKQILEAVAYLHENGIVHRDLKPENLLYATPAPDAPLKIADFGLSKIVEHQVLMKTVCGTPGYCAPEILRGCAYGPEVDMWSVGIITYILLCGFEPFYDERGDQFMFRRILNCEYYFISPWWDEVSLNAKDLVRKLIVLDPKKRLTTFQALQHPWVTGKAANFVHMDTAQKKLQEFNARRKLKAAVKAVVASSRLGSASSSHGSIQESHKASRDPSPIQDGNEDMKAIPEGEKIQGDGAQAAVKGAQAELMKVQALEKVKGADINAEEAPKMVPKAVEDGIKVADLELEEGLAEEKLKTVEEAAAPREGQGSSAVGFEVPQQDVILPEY

[28] = target: Cyclin-dependent kinase 2 (Homo sapiens, UniProt P24941); assay: Inhibition of human recombinant CDK2
[29] = target: Serine/threonine-protein kinase Chk1 (Homo sapiens, UniProt O14757); assay: Inhibition of human recombinant CHK1
Sequence of Serine/threonine-protein kinase Chk1 (O14757 whole entry): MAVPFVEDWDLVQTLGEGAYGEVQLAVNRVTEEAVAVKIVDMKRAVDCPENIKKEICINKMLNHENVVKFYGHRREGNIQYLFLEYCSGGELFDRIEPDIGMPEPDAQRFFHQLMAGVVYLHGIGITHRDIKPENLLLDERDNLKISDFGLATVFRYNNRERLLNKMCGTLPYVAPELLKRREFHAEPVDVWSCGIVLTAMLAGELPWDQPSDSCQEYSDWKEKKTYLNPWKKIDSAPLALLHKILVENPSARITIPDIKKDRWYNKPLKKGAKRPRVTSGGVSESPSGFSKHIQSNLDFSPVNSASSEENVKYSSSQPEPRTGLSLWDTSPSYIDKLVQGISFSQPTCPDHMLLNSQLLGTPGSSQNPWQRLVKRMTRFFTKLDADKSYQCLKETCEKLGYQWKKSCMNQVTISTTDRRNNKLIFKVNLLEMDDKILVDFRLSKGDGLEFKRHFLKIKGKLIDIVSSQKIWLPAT

[30] = target: RAF proto-oncogene serine/threonine-protein kinase (Homo sapiens, UniProt P04049); assay: Inhibition of human recombinant c-RAF
[31] = target: Epidermal growth factor receptor (Homo sapiens, UniProt P00533); assay: Inhibition of human recombinant EGFR
Sequence of Epidermal growth factor receptor (P00533 whole entry): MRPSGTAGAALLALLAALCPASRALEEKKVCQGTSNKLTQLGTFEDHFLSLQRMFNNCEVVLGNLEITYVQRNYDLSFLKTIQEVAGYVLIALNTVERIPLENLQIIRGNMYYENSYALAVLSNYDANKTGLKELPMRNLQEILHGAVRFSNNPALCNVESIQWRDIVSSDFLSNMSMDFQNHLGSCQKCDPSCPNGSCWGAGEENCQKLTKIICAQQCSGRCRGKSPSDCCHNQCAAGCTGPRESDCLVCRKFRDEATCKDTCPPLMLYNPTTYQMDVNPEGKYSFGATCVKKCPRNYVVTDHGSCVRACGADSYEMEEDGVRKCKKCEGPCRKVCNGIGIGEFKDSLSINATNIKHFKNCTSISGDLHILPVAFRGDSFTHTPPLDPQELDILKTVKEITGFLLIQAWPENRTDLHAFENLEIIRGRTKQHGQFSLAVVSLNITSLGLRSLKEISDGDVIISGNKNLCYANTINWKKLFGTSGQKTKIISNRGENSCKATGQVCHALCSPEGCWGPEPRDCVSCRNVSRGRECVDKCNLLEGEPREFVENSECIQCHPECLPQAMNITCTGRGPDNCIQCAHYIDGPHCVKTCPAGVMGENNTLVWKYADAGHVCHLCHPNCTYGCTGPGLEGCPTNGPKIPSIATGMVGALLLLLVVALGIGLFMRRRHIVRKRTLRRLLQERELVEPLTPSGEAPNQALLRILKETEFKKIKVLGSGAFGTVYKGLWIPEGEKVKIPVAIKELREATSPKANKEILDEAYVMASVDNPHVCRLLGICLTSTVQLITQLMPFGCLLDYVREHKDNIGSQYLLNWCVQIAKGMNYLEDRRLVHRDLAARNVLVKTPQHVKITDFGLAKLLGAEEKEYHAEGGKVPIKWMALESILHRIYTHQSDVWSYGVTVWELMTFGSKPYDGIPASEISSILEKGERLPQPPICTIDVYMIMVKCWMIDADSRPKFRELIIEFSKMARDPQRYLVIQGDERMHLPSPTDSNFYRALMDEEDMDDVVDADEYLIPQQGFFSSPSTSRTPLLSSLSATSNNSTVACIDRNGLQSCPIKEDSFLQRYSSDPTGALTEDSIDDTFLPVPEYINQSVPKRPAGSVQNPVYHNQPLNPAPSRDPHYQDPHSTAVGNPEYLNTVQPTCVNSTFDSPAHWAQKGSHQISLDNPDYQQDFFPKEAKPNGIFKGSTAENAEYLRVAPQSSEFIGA

[32] = target: Receptor tyrosine-protein kinase erbB-2 (Homo sapiens, UniProt P04626); assay: Inhibition of human recombinant ErbB2
[33] = target: Mitogen-activated protein kinase 10 (Homo sapiens, UniProt P53779); assay: Inhibition of human recombinant JNK3

For CN(C)CCCNC(=O)c1csc2nc(-c3ccc(NC(=O)Nc4cc(C(C)(C)C)on4)cc3)cn12, the IC50 [1] was > 10 µM, the IC50 [2] was > 10 µM and the IC50 [3] was > 10 µM. The IC50 [4] was > 10 µM, the IC50 [5] was > 10 µM and the IC50 [6] was > 10 µM. For the same compound, the IC50 [7] was > 10 µM, the IC50 [8] was > 10 µM and the IC50 [9] was > 10 µM. The IC50 (Raji) was > 10 µM, the IC50 (HT-29) was 10 µM and the IC50 (HCT-116) was 10 µM. The IC50 [10] was 10 µM, the IC50 (CWR22R) was > 10 µM and the IC50 [11] was 10 µM. For the same compound, the IC50 (A2058) was 10 µM, the IC50 (U-251) was > 10 µM and the IC50 (MDA-MB-157) was > 10 µM. The IC50 (MDA-MB-435) was > 10 µM, the IC50 (MDA-MB-453) was > 10 µM and the IC50 [12] was 10 µM. The IC50 (ZR-75-1) was > 10 µM, the IC50 (NCI-H1975) was > 10 µM and the IC50 [13] was > 10 µM. The IC50 [14] was 10 µM, the IC50 [15] was > 10 µM and the IC50 [16] was 10 µM. For the same compound, the IC50 [17] was 10 µM, the inhibition [18] was “Dose-dependent effect” and the inhibition [19] was “Active”. For the same compound, the inhibition [20] was “Active”, the IC50 (Aurora kinase A) was > 10 µM and the IC50 (MV4-11) was 0.002 µM. For the same compound, the IC50 (HeLa) was 20 µM, the IC50 [21] was 0.294 µM and the IC50 [22] was 0.043 µM. For the same compound, the IC50 [23] was 1.98 µM, the IC50 [24] was > 10 µM and the IC50 (Aurora kinase B) was > 10 µM. For the same compound, the IC50 [25] was > 10 µM, the IC50 [26] was > 10 µM and the IC50 [27] was > 10 µM. For the same compound, the IC50 [28] was > 10 µM, the IC50 [29] was > 10 µM and the IC50 [30] was > 10 µM. The IC50 [31] was > 10 µM, the IC50 [32] was > 10 µM and the IC50 [33] was > 10 µM.
